The subject of series [1] is CYP1A1 mRNA. Put plainly: CYP1A1 mRNA (qRT-PCR) in wild-type and AhR-knockout HT-29 cells. It is filed as cell-based, human. The protocol:
Figure 4 Effects of MICT on the induction of CYP1A1 mRNA in human hepatic and intestinal cells. Cultured cells were incubated for 24 h with the vehicle (DMSO; 0.1% v/v) and tested MICT in the presence or absence of TCDD (10 nM). RT-PCR determined the level of CYP1A1 mRNA, and the data were normalized per GAPDH mRNA level. […] (A,B) Experiments in three consecutive passages of human colon adenocarcinoma cell line LS180 in the absence (A) and the presence (B) of 10 nM TCDD. The bar graphs show the percentage of maximal induction attained by TCDD and are expressed as the mean ± SD. (C) Experiments in three consecutive passages of wild-type (AhR^+/^+) and AhR-knockout (AhR^−/^−) HT-29 cells. […] (D) Primary human hepatocytes from three different donors (LH79, Hep2201020, and Hep2201021).
CRISPR/Cas9 knockout of the AhR in HT-29 cells: A CRISPR/Cas9 expression vector with GFP, pSpCas9(BB)-2A-GFP (PX458) (#48138; Addgene, Cambridge, MA, USA) was used for integration of the gRNA complementary to exon 2 of the AHR gene. 4 × 10^5 cells were seeded in a 6-well plate and transfected (at 60–70% confluence) with a mixture of vector DNA and Lipofectamine™ 3000 (Life Technologies) according to the manufacturer’s instructions. The transfected cells positive for GFP signal were sorted using BD Aria II Sorp (Becton Dickinson, Franklin Lakes, NJ, USA), in a single cell suspension into a 96-well plate. DNA isolation was performed by a QIAamp DNA Mini Kit (Qiagen, Hilden, Germany) according to the manufacturer’s instructions. The function of the CRISPR/Cas9 system was verified by the SURVEYOR mutation detection kit (Integrated DNA Technologies, Leuven, Belgium) according to the manufacturer’s instructions. The positive clones were checked for AhR expression by Western Blotting. PCR amplification products were purified using the QIAquick PCR Purification Kit (Qiagen) and integrated into a plasmid vector (pGEM_T Easy Vector Systems, Promega), and E.coli DHP α (MAX Efficiency DH5a Competent Cells, Thermo Fisher; Waltham, MA, USA) were transformed according to manufacturer’s instructions, DNA was isolated, and deletions in the AhR gene sequences were verified by sequencing (Mix2seq, Eurofins Genomic, Luxembourg).
Total RNA was isolated using TRI Reagent® (Sigma Aldrich, Prague, Czech Republic). cDNA was synthesized using M-MuLV reverse transcriptase (New England Biolabs, Ipswich, MA, USA). The reverse transcription was performed at 42 °C for 60 min using Random Primers 6 (New England Biolabs, Ipswich, MA, USA) and diluted in a 1:4 ratio by PCR-grade water. The quantitative reverse transcriptase-polymerase chain reaction (qRT-PCR) was performed on the Lightcycler 480 II using the LightCycler ® 480 Probes Master (Roche Diagnostic Corporation, Prague, Czech Republic). The levels of CYP1A1 and GAPDH mRNAs were determined using the Universal Probe Library probes (UPL; Roche Diagnostic Corporation, Prague, Czech Republic) in combination with specific primers, using a protocol described elsewhere. All measurements were performed in triplicates, and the gene expression was normalized to glyceraldehyde-3-phosphate dehydrogenase (GAPDH) as a house-keeping gene. The data were processed using the delta-delta Ct method and expressed as a fold induction over the negative control (DMSO) or as a percentage of the positive control (maximal induction by TCDD).
(In qPCR the cycle at which signal appears reflects the starting amount.)

In series [2] the test system is CYP1A1 mRNA. The arrangement: method as in PMID 24563545. To be noted: cited from earlier work.
In series [3] the test system is AhR. The arrangement: method as in PMID 26235394. To be noted: 100 µM IND, HepG2 cells, 4 h; cited from earlier work.
The subject of the next series is CYP1A1 promoter. The series can be described thus: Chromatin immunoprecipitation (ChIP), binding of the AhR to CYP1A1 promoter in LS180 cells. Conditions: 90 min. It is filed as cell-based, human. The protocol:
Figure 7 MICT elicit the binding of the AhR to CYP1A1 promoter, as determined by the chromatin immunoprecipitation assay (ChIP). LS180 cells were incubated with vehicle, TCDD, and tested compounds, as described in Materials and Methods, and were then subjected to ChIP analysis. Bar graphs show binding of the AhR to CYP1A1 promoter as quantified by RT-PCR. The entire protocol was carried out in three consecutive cell passages. The data are expressed as a fold enrichment to vehicle-treated cells and show the mean ± SD from duplicates (technical replicates). DNA fragments amplified by PCR were resolved on 2% agarose gel (representative record from “exp 2” is shown).
LS180 cells (4 million) were seeded in a 60-mm dish in Dulbecco’s modified Eagle’s medium (D6546; Sigma Aldrich). The following day, the cells were incubated with DMSO (0.1% V/V), TCDD (10 nM), IND (1000 µM), IPY (200 µM), 3MI (200 µM), TA (200 µM), IAC (100 µM), and IAD (200 µM) for 90 min at 37 °C. ChIP assay was performed as we described in detail elsewhere.

Series [4] has as its system AhR. The arrangement: method as in PMID 23973224. To be noted: mouse H1L1.1c2 reporter cells; cited from earlier work.
The mark [5] stands for this setting: colon HT-29 cells, wild-type, 24 h.

We go through 8 compounds from paper PMC7177849, “Gut Microbial Catabolites of Tryptophan Are Ligands and Agonists of the Aryl Hydrocarbon Receptor: A Detailed Characterization” (International Journal of Molecular Sciences, 2020).

Where two headings read alike, the source gives them in different places.

As for `NCCc1c[nH]c2ccccc12` [TA, tryptamine], the “induction of CYP1A1 mRNA” value with CYP1A1 mRNA [1] (setting [5]) is given as “weaker inducers”. For the same compound, the “CYP1A1 mRNA induction” value in the series with CYP1A1 mRNA [2] (50 µM TA, Caco-2 and cells) was “induction”.

Consider `c1ccc2[nH]ccc2c1` [IND, indole], for which the “induction of CYP1A1 mRNA” value is listed as “weaker inducers” in the series with CYP1A1 mRNA [1]; “moderate induction” in the series on CYP1A1 mRNA [2] (various human cells, 500–1000 µM IND); “achieved” with AhR [3]. Besides, the “activation of AhR” value in the series on AhR [3] is on record as “achieved”.

Turning to `NC(=O)Cc1c[nH]c2ccccc12` [IAD, indole-3-acetamide], in the series with CYP1A1 mRNA [1] (setting [5]), the “induction of CYP1A1 mRNA” value is listed as “strong induction”.

Turning to `Cc1c[nH]c2ccccc12` [3MI, skatole], the “induction of CYP1A1 mRNA” value in the series on CYP1A1 mRNA [1] (setting [5]) is listed as “weaker inducers”.

Regarding `Clc1cc2c(cc1Cl)Oc1cc(Cl)c(Cl)cc1O2` [TCDD, 2,3,7,8-tetrachlorodibenzo-p-dioxin, reference compound], the CYP1A1 induction entry with CYP1A1 mRNA [1] (AhR knock-out HT-29 variant, 24 h) is given as “nullified”. Besides, the “binding of the AhR to the promoter of the CYP1A1 gene” value in the series on CYP1A1 promoter is given as “enhanced”.

For the compound `O=C(O)C(=O)Cc1c[nH]c2ccccc12` [IPY, indole-3-pyruvate], the “induction of CYP1A1 mRNA” value in the series on CYP1A1 mRNA [1] (setting [5]) is given as “strong induction”.

For the compound `O=Cc1c[nH]c2ccccc12` [IA, indole-3-aldehyde], in the series with AhR [4], the agonist activity entry was “vigorous agonist activity”.

Consider `O=C(O)/C=C/c1c[nH]c2ccccc12` [IAC, indole-3-acrylate], for which the “induction of CYP1A1 mRNA” value in the series on CYP1A1 mRNA [1] (setting [5]) is recorded as “strong induction”.
